Assay results reported in patent US11693017B2, “Small molecule biosensors” (President and Fellows of Harvard College, priority 2015, dated 2023).

Legend:
[1] = system: DIG-Cas9 fusion in K562 cell line containing a broken EGFP; experiment: TF-biosensor-Cas9 assay (EGFP repair); assay type: cell-based, human; conditions: 48-hour incubation
Experimental: Construct integration was carried out as for the Cas9 experiments for EGFP assays, except that the constructs were integrated into K562 containing a broken EGFP reporter construct. Introduction of an engineered nuclease along with a donor oligonucleotide can correct the EGFP and produce fluorescent cells. Upon successful integration (˜10 days after initial transfection), 500,000 cells were nucleofected with 500 ng of guide RNA (sgRNA) and 2 μg of donor oligonucleotide. Nucleofected cells were then collected with 200 μL of media and 50 μL aliquots were added to wells containing 950 μL of media. Each nucleofection was split into four separate wells containing 1 μM of digoxigenin, 25 μM of progesterone, or no small molecule. Forty-eight hours later, cells were analyzed using flow cytometry and the percentage of EGFP positive cells was determined.

[2] = system: G-DIG1-V-Matα2 biosensor with pUAS::Luc in transgenic Arabidopsis plants; experiment: TF-biosensor assays in transgenic Arabidopsis plants; assay type: in vivo, Arabidopsis thaliana
Experimental: Transgenic plants expressing the digoxin biosensor genetic circuit were tested for digoxigenin-induced luciferase expression by placing 14-16 day old plants in liquid MS (-sucrose) media supplemented with 0.1 mM digoxigenin in 24-well plates, and incubated in a growth chamber at 24° C., […] light.
Luciferase expression was measured by imaging plants with a Stanford Photonics XR/MEGA-10 ICCD Camera, after spraying luciferin and dark adapting plants for 30 minutes. Luciferase expression was quantified using Piper Control (v.2.6.17) software. Plants from line KJM58-10 were used to test for specificity of induction by incubating plants, as described above, in 0.1 mM digoxigenin, 0.1 mM digitoxigenin, and 0.02 mM β-estradiol. All chemicals were obtained from Sigma-Aldrich (St. Louis, Mo.).

DIG10.3 (DIG0) = conditions: cited from earlier work
[3] = system: LexA-based TF-biosensors with DIG1 and B42; experiment: Luciferase reporter assay in yeast with LexA-based TF-biosensor; assay type: cell-based, Saccharomyces cerevisiae; conditions: reporter promoter containing LexA-binding sites
Experimental: Yeast strains containing either a plasmid-borne or integrated luciferase reporter were transformed with p16C plasmids encoding TF-biosensors. Transformants were grown in triplicate overnight at 30° C. in SD-ura media containing 2% glucose in sterile glass test tubes on a roller drum. After ˜16 hours of growth, OD600 of each sample was measured and cultures were back diluted to OD600=0.2 in fresh SD-ura media containing steroid dissolved in DMSO or a DMSO control (1% DMSO final). Cultures were grown at 30° C. on roller drum for 8 hrs prior to taking readings. Measurement of luciferase activity was adapted from a previously reported protocol^58. 100 uL of each culture was transferred to a 96-well white NUNC plate. 100 uL of 2 mM D-luciferin in 0.1 M sodium citrate (pH 4.5) was added to each well of the plate and luminescence was measured on a Victor 3V after 5 minutes.

[4] = system: degron-G-PRO1-V in HIS3 reporter strain PJ69-4a; experiment: Yeast spotting (HIS3 growth) assay; assay type: cell-based, Saccharomyces cerevisiae; conditions: -his media
Experimental: Yeast strain PJ69-4a transformed with p16C plasmids containing degron G-DIG-V variants were first inoculated from colonies into SD-ura media and grown at 30° C. overnight (16 h). 1 mL of each culture was pelleted by centrifugation (3000 rcf, 2 min), resuspended in 1 mL of fresh SD-ura and the OD660 was measured. Each culture was then diluted in SD-ura media to an OD660=0.2 and incubated at 30° C. for 4-6 hrs. 1 mL of each culture was pelleted and resuspended in sterile, distilled water and the OD660 measured again. Each transformant was then diluted to an OD660=0.1. Four 1/10 serial dilutions of each culture were prepared in sterile water (for a total of 5 solutions). 10 μL of each dilution was spotted in series onto several SD-ura-his agar plates containing 1 mM 3-aminotriazole and the indicated steroid.

PRO0 = conditions: cited from earlier work

## C[C@]12CC[C@H](O)C[C@H]1CC[C@@H]1[C@@H]2C[C@@H](O)[C@]2(C)[C@@H](C3=CC(=O)OC3)CC[C@]12O [digoxigenin]
[1]
  increase in GFP positive cells relative to the mock control: ~18 fold
[2]; after 42 hours, T1 transgenic plants
  induction of luciferase activity compared to the uninduced control: 30-50 fold

## C[C@H]1O[C@@H](O[C@H]2[C@@H](O)C[C@H](O[C@H]3[C@@H](O)C[C@H](O[C@H]4CC[C@@]5(C)[C@H](CC[C@@H]6[C@@H]5C[C@@H](O)[C@]5(C)[C@@H](C7=CC(=O)OC7)CC[C@]65O)C4)O[C@@H]3C)O[C@@H]2C)C[C@H](O)[C@@H]1O [digoxin]
DIG10.3 (DIG0)
  affinity of binding to DIG10.3 (DIG0): picomolar
[2]; transgenic Arabidopsis plants
  induction of the biosensor: capable of inducing
[3]
  activation in the presence of digoxin: ~40 fold

## CC(=O)[C@H]1CC[C@H]2[C@@H]3CC=C4C[C@@H](O)CC[C@]4(C)[C@H]3CC[C@]12C [pregnenolone]
[4]
  growth of histidine auxotrophic reporter strain: not

## CC(=O)[C@H]1CC[C@H]2[C@@H]3CCC4=CC(=O)CC[C@]4(C)[C@H]3CC[C@]12C [progesterone]
[4]
  growth of histidine auxotrophic reporter strain: stimulated
PRO0
  affinity of binding to PRO0: nanomolar
